Test results reported in the NIST ThermoML archive (doi:10.1016/j.fluid.2009.08.017).
± gives the expanded uncertainty stated by the source.

Experiment: activity coefficient (dimensionless); of the first substance listed, at infinite dilution; xn = mol fraction of the nth substance listed
Conditions: 101 kPa, Liquid, Chromatography, x1 = 0

SMILES	activity coefficient (298.15 K)	activity coefficient (308.15 K)	activity coefficient (318.15 K)	activity coefficient (328.15 K)	activity coefficient (338.15 K)	activity coefficient (348.15 K)	activity coefficient (358.15 K)	activity coefficient (368.15 K)
CCCO [propan-1-ol] + CCCCCCOCn1cc[n+](C)c1.O=S(=O)([N-]S(=O)(=O)C(F)(F)F)C(F)(F)F	1.83 ± 0.12	1.64 ± 0.11	1.49 ± 0.1	1.36 ± 0.09	1.24 ± 0.08	1.15 ± 0.07	1.07 ± 0.07	0.989 ± 0.062
CCCOCCC [dipropyl ether] + CCCCCCOCn1cc[n+](COCCCCCC)c1.O=S(=O)([N-]S(=O)(=O)C(F)(F)F)C(F)(F)F	1.49 ± 0.098	1.49 ± 0.098	1.49 ± 0.098	1.5 ± 0.098	1.5 ± 0.099	1.5 ± 0.099	1.5 ± 0.099	1.5 ± 0.099
CCCCCCCCCC [decane] + CCCCCCOCn1cc[n+](COCCCCCC)c1.O=S(=O)([N-]S(=O)(=O)C(F)(F)F)C(F)(F)F	7.38 ± 0.5	7 ± 0.48	6.66 ± 0.45	6.38 ± 0.43	6.11 ± 0.42	5.87 ± 0.4	5.65 ± 0.39	5.46 ± 0.37
C1CCCCC1 [cyclohexane] + CCCCCCOCn1cc[n+](COCCCCCC)c1.O=S(=O)([N-]S(=O)(=O)C(F)(F)F)C(F)(F)F	2.32 ± 0.16	2.22 ± 0.15	2.15 ± 0.15	2.08 ± 0.14	2.01 ± 0.14	1.94 ± 0.13	1.89 ± 0.13	1.84 ± 0.12
C#CCCCCC [1-heptyne] + CCCCCCOCn1cc[n+](COCCCCCC)c1.O=S(=O)([N-]S(=O)(=O)C(F)(F)F)C(F)(F)F	1.37 ± 0.089	1.38 ± 0.09	1.39 ± 0.09	1.39 ± 0.091	1.4 ± 0.091	1.4 ± 0.092	1.41 ± 0.092	1.42 ± 0.093
CO [methanol] + CCCCCCOCn1cc[n+](COCCCCCC)c1.O=S(=O)([N-]S(=O)(=O)C(F)(F)F)C(F)(F)F	1.17 ± 0.07	1.06 ± 0.067	0.978 ± 0.061	0.9 ± 0.057	0.834 ± 0.054	0.776 ± 0.051	0.725 ± 0.048	0.681 ± 0.046
Cc1ccccc1C [1,2-dimethylbenzene] + CCCCCCOCn1cc[n+](C)c1.O=S(=O)([N-]S(=O)(=O)C(F)(F)F)C(F)(F)F	–	–	1.33 ± 0.086	1.34 ± 0.087	1.35 ± 0.087	1.35 ± 0.088	1.36 ± 0.088	1.36 ± 0.089
C#CCCCCC [1-heptyne] + CCCCCCOCn1cc[n+](C)c1.O=S(=O)([N-]S(=O)(=O)C(F)(F)F)C(F)(F)F	2.44 ± 0.17	2.45 ± 0.17	2.45 ± 0.17	2.46 ± 0.17	2.47 ± 0.17	2.48 ± 0.17	2.48 ± 0.17	2.49 ± 0.17
CCCCCCCC [octane] + CCCCCCOCn1cc[n+](C)c1.O=S(=O)([N-]S(=O)(=O)C(F)(F)F)C(F)(F)F	13.6 ± 0.9	12.8 ± 0.9	12.1 ± 0.8	11.5 ± 0.8	10.9 ± 0.7	10.4 ± 0.7	10 ± 0.7	9.51 ± 0.65
COC(C)(C)C [2-methoxy-2-methylpropane] + CCCCCCOCn1cc[n+](C)c1.O=S(=O)([N-]S(=O)(=O)C(F)(F)F)C(F)(F)F	1.26 ± 0.08	1.29 ± 0.08	1.32 ± 0.09	1.36 ± 0.09	1.39 ± 0.09	1.41 ± 0.09	1.44 ± 0.09	1.46 ± 0.1
Cc1ccc(C)cc1 [1,4-dimethylbenzene] + CCCCCCOCn1cc[n+](COCCCCCC)c1.O=S(=O)([N-]S(=O)(=O)C(F)(F)F)C(F)(F)F	–	–	0.949 ± 0.06	0.952 ± 0.06	0.955 ± 0.06	0.958 ± 0.06	0.96 ± 0.06	0.962 ± 0.06
CCCCCCC [heptane] + CCCCCCOCn1cc[n+](C)c1.O=S(=O)([N-]S(=O)(=O)C(F)(F)F)C(F)(F)F	10.6 ± 0.7	10 ± 0.7	9.51 ± 0.65	9.07 ± 0.62	8.65 ± 0.59	8.28 ± 0.56	7.95 ± 0.54	7.66 ± 0.52
Cc1ccccc1C [1,2-dimethylbenzene] + CCCCCCOCn1cc[n+](COCCCCCC)c1.O=S(=O)([N-]S(=O)(=O)C(F)(F)F)C(F)(F)F	–	–	0.89 ± 0.057	0.891 ± 0.057	0.892 ± 0.057	0.894 ± 0.057	0.895 ± 0.057	0.896 ± 0.057
CCCCO [butan-1-ol] + CCCCCCOCn1cc[n+](COCCCCCC)c1.O=S(=O)([N-]S(=O)(=O)C(F)(F)F)C(F)(F)F	–	–	1.19 ± 0.08	1.1 ± 0.07	1.01 ± 0.064	0.943 ± 0.059	0.877 ± 0.056	0.82 ± 0.053
CCCCCCCCCC [decane] + CCCCCCOCn1cc[n+](C)c1.O=S(=O)([N-]S(=O)(=O)C(F)(F)F)C(F)(F)F	23.5 ± 1.6	21.7 ± 1.5	20.2 ± 1.4	18.9 ± 1.3	17.7 ± 1.2	16.7 ± 1.1	15.8 ± 1.1	14.9 ± 1
C=CCCCCCC [oct-1-ene] + CCCCCCOCn1cc[n+](C)c1.O=S(=O)([N-]S(=O)(=O)C(F)(F)F)C(F)(F)F	7.97 ± 0.54	7.67 ± 0.52	7.39 ± 0.5	7.12 ± 0.49	6.89 ± 0.47	6.69 ± 0.46	6.5 ± 0.44	6.34 ± 0.43
c1ccccc1 [benzene] + CCCCCCOCn1cc[n+](COCCCCCC)c1.O=S(=O)([N-]S(=O)(=O)C(F)(F)F)C(F)(F)F	0.608 ± 0.043	0.608 ± 0.043	0.607 ± 0.042	0.607 ± 0.042	0.606 ± 0.042	0.606 ± 0.042	0.606 ± 0.042	0.606 ± 0.042
COC(C)(C)C [2-methoxy-2-methylpropane] + CCCCCCOCn1cc[n+](COCCCCCC)c1.O=S(=O)([N-]S(=O)(=O)C(F)(F)F)C(F)(F)F	0.759 ± 0.05	0.78 ± 0.051	0.801 ± 0.052	0.821 ± 0.053	0.841 ± 0.054	0.859 ± 0.055	0.877 ± 0.056	0.896 ± 0.057
